Key:
[1] = test system: human breast cancer MCF-7 cells; experiment: Proliferation of MCF-7 cell line, DNA content (Example 12); format: cell-based; conditions: MCF-7 cells
Text: MCF-7 human breast cancer cells were obtained from the American Type Culture Collection # HTB 22 at passage 147 and routinely grown in phenol red-free Dulbecco's Modified Eagle's-Ham's F12 medium, the supplements mentioned above and 5% FBS. The MCF-7 human breast adenocarcinoma cell line was derived from the pleural effusion of a patient. MCF-7 cells were used between passages 148 and 165 and subcultured weekly.
Cells in their late logarithmic growth phase were harvested with 0.1% pancreatin (Sigma) and resuspended in the appropriate medium containing 50 ng bovine insulin/ml and 5% (v/v) FBS treated twice with dextran-coated charcoal to remove endogenous steroids. Cells were plated in 24-well Falcon plastic culture plates (2 cm2/well) at the indicated density and allowed to adhere to the surface of the plates for 72 h. […] Control cells received only the ethanolic vehicle (0.1% EtOH,v/v). Cells were incubated for the specified time intervals with medium changes at 2- or 3-day intervals. Cell number was determined by measurement of DNA content.
Dose-response curves as well IC50 values were calculated using a weighted iterative nonlinear least-squares regression. All results are expressed as means±SEM.

[2] = test system: ovariectomized female rats; experiment: Uterine weight, fat and lipid, 20-day treatment (Example 13); format: in vivo, Rattus norvegicus; conditions: 20 days
Description: The objective of this study was to compare the effect on uterine, weight, fat and blood lipids following treatment with EM-652.HCl, ERA-923 and lasofoxifene, administered alone or in combination with EM-652.HCl, to ovariectomized female rats. For this purpose, each compound was administered orally for 20 days to ovariectomized female rats and at the end of the treatment period, the uterus and fat were collected and weighed.
d) Diet: • Certified Rodent feed (Lab Diet #5002, pellets) and tap water were provided ad libitum. Randomization:
Seventy rats were separated into 7 groups of 9 to 11 animals for conduct of the study outlined below:
Animals from groups 2 to 9 were ovariectomized under Isoflurane-induced anesthesia on Day 7 of the study.
The vehicle or tested compounds were given as suspension in 0.4% methylcellulose by oral gavage (0.5 ml/gavage/rat) from Day 2 to Day 21 of the study.
Rats were weighed on Study Day 1 and at the necropsy (SD 22).
Approximately 24 hours after the last dosing, overnight fasted rats under Isoflurane-induced anesthesia were killed by exsanguination at the abdominal aorta.
Uteri and retroperitonal adipose tissue were removed and weighed.

[3] = test system: ovariectomized female rats; experiment: SERM comparison, energy balance and lipid-lipoprotein metabolism (Example 10); format: in vivo, Rattus norvegicus; conditions: OVX rats, 20 days
Description: For this purpose, tested compounds were administered by oral gavage for 20 days (0.5 mg/rat for each compound; 0.5 ml/rat) in 0.4% methylcellulose to ovariectomized female rats.
d) Diet: • During acclimation period, rats received a certified rodent diet (Lab Diet #5002, pellet) and tap water ad libitum while during study period, they received a high carbonhydrate diet (diet #3) and tap water ad libitum. The diet was composed of (g/100 g): Corn starch, 31.2; Dextrose, 31.2; Casein, 20.0; corn oil, 6.4; dl-Methionine, 0.3; Vitamine mix, 1.0; AIN-76 mineral mix, 4.9; fiber, 5.0. Rats were fasted (with access to water only) around 07 h00 the morning of their necropsy Randomization:
Test group: Seventy-seven rats were assigned to 8 groups of 9-10 rats for conduct of the study outlined below.
On day 0 of the study, rats from group 2 to 8 were ovariectomized (by bilateral flank incision) under Isoflurane anesthesia. Rats from group 1 were sham-operated.
Rats were weighed on day 0 (surgery) and then, every 2 days during study period as well as on the day of necropsy.
Food consumption was evaluated every 2 days.
In order to determine the effect of treatments on fat percentage, body composition was measured on Day 17 of the study using dual energy x-ray absorptiometry (DEXA; QDR 4500A, Hologic, Waltham, Mass.).
On day 21 of the study, approximately 24 hours after the last dosing and 6 hours of fasting, animals under Ketamine-Xylazine anesthesia were killed by exsanguination at the abdominal aorta.
Blood lipids (Total cholesterol and Triglycerides) and glucose were measured on frozen serum samples using the Boehringer Mannheim Diagnostic Hitachi 911 Analyzer (Boehringer Mannheim Diagnostic Laboratory Systems). Circulating hormones and substrates (Insulin and leptin) were measured on serum sample using the following kits: • Insulin: Linco RIA kit • Leptin: Linco RIA kit Organs and Tissues Collected
The following tissues were collected and weighed: • Muscle (right soleus and right VLM), fat (right retroperitoneal and right inguinal), and brown adipose tissue.
A piece of ˜0.1 g of all tissues (except uterus and vagina) were frozen in liquid nitrogen and kept at −80 C for later determination of lipoprotein-lipase (LPL) activity.

intact female rats = experiment: 6-month treatment, fat accumulation in intact female rats receiving or not LHRH-A (Example 5); format: in vivo, Rattus norvegicus; conditions: 6-month LHRH-A treatment
Description: The objective of this study is to determine the effect on fat of treatment with EM-652.HCl and dehydroepiandrosterone (DHEA) in intact female rats receiving or not a luteinizing hormone releasing hormone agonist (LHRH-A, LHRH ethylamide diacetate). For this purpose, intact female rats, treated or not with LHRH-A (2 μg/rat), received daily administration of EM-652.HCl (2.5 mg/kg) and DHEA (100 mg/kg), alone or in combination, for 6 months. EM-652.HCl was administered orally, DHEA was applied topically while LHRH-A was injected subcutaneously. All treatments were administered once daily.
One hundred twenty rats were separated into 8 groups of 15 animals for conduct of the study outlined below:
The LHRH-A is available in solution at a concentration of 1.0 mg/ml. We diluted this concentrated solution (in order to obtain a final concentration of 0.004 mg/ml) by using the following vehicle: 0.3% Sodium Chloride and 0.25% Sodium Phosphate monobasic, monohydrate in water. The sodium hydroxide (aqueous) was used to adjust the pH between 5.6-6.2.
Dosing suspensions/solutions were prepared every two weeks according to the most recent body weight (group mean) except for the LHRH-A solution. For EM-652.HCl administered orally, the vehicle (0.4% methylcellulose) was added to the tested compound, previously weighed into a glass bottle, at least 48 hours prior to the first dosing day. To ensure the homogeneity of dosing suspension, it was stirred at least 48 hours at 2 to 8 C. Dosing suspension was kept at 2 to 8 C. For DHEA solution applied topically, the ethanol was added to DHEA and the mix were agitated until dissolution of DHEA. Then, the polypropylene glycol was added and the solution agitated until homogeneity. Dosing solution was kept at 2 to 8 C. For LHRH-A solution injected subcutaneously, a dilution of the concentrated solution using the appropriate vehicle was prepared every month. Dosing solution was kept at 2 to 8 C.
The administration of tested compounds or vehicle was given from on Study Day 1 of the protocol. The tested compounds were given as suspension in 0.4% methylcellulose by oral gavage (0.5 ml/gavage/rat) once daily or were applied topically in 50% ethanol-50% propylene glycol (0.5 ml/application/rat) once daily. Rats from groups 5 to 8 received also the LHRH-A once daily by subcutaneous injection (0.5 ml/injection/rat). Rats not receiving a tested compound orally and/or topically received the appropriate vehicle alone.
Body composition was measured on whole skeleton of animal under Isoflurane-induced anesthesia using dual energy x-ray absorptiometry (DEXA; QDR 4500A, Hologic) during the acclimation period and after 6 months of treatment.

[4] = OVX rats, commercial rodent diet, 0.5 mg oral, EM-652.HCl 2.5 mg in combinations
[5] = high carbohydrate diet, 0.5 mg/rat oral gavage

**Q.** `Cc1c(-c2ccc(O)cc2)n(Cc2ccc(OCCN3CCCCC3)cc2)c2ccc(O)cc12` [ERA-923] was tested. Which EC50 ([1]; Homo sapiens, MCF7, text summary of table 12, read-out: EC50 of inhibition (antiestrogen activity)) did it give?
**A.** 3.7 nM

**Q.** What about the “Stimulation of DNA by tested compounds % of 1 nM E2 stimulation” value ([1]; absence of E2) of the same compound?
**A.** N.S.

**Q.** What about the “OVX-induced increase in total serum cholesterol levels” value ([2]; 0.5 mg) of the same compound?
**A.** completely prevented

**Q.** What about the “effect on uterine weight compared to the OVX control animals” value [2] of the same compound?
**A.** no effect

**Q.** And the “prevention of body weight increase induced by ovariectomy” value ([2]; OVX rats, 0.5 mg)?
**A.** 59%

**Q.** What about the Cholesterol [2, 4] of the same compound?
**A.** 1.20 ± 0.10 mmol/L

**Q.** What about the “Final Body Weight” value [2, 4] of the same compound?
**A.** 248 ± 5 g

**Q.** What about the “Uterine Weight” value [2, 4] of the same compound?
**A.** 162.6 ± 5.2 mg

**Q.** What about the “Serum insulin (in words)” value ([3]; 0.5 mg/rat) of the same compound?
**A.** decreased

**Q.** And the “Brown adipose tissue Lipoprotein lipase activity” value [3, 5]?
**A.** 1017 ± 83 μU/g protein

**Q.** What about the “Brown adipose tissue weight” value [3, 5] of the same compound?
**A.** 0.350 ± 0.019 g

**Q.** What about the Cumulative food intake [3, 5] of the same compound?
**A.** 347 ± 9 g

**Q.** What about the Serum glucose [3, 5] of the same compound?
**A.** 16.5 ± 2.7 mmol/L

**Q.** And the Serum insulin [3, 5]?
**A.** 0.113 ± 0.029 nmol/L

**Q.** What about the Serum leptin [3, 5] of the same compound?
**A.** 2.12 ± 0.44 ng/mL

**Q.** What about the Serum total cholesterol [3, 5] of the same compound?
**A.** 1.66 ± 0.16 mmol/L

**Q.** What about the Serum triglycerides [3, 5] of the same compound?
**A.** 0.93 ± 0.24 mmol/L

**Q.** And the “Soleus muscle Lipoprotein lipase activity” value [3, 5]?
**A.** 11.7 ± 1.9 μU/g protein

**Q.** And the Soleus muscle weight [3, 5]?
**A.** 0.100 ± 0.004 g

**Q.** And the Total weight [3, 5]?
**A.** 260 ± 5 g

**Q.** What about the VastusLateralis muscle weight [3, 5] of the same compound?
**A.** 0.993 ± 0.33 g

**Q.** And the “White adipose tissue inguinal Lipoprotein lipase activity” value [3, 5]?
**A.** 766 ± 173 μU/g protein

**Q.** What about the “White adipose tissue inguinal weight” value [3, 5] of the same compound?
**A.** 0.326 ± 0.042 g

**Q.** And the “White adipose tissue retroperitoneal Lipoprotein lipase activity” value [3, 5]?
**A.** 1750 ± 140 μU/g protein

**Q.** What about the “White adipose tissue retroperitoneal weight” value [3, 5] of the same compound?
**A.** 1.27 ± 0.15 g

**Q.** LHRH ethylamide diacetate [LHRH-A] was tested. Which “increase of the percentage of body fat” value (intact female rats) did it give?
**A.** 58%

Reference: patent US8609695B2, “Methods of treating and/or suppressing insulin resistance” (Endorecherche, Inc., priority 1999, dated 2013)
